According to US20240016777A1, “COMPOUNDS AND METHODS FOR TREATING VIRAL INFECTIONS” (priority 2020, published 2024):
Read-outs that look alike come from different tables or passages of the source.

Experiments:
[1] = system: SARS-CoV-2; experiment: Vero E6-based SARS-CoV-2 replication assay (immunofluorescence of nucleocapsid protein); format: cell-based; conditions: Vero E6 cells
[2] = biological target: T1, Mpro (Severe acute respiratory syndrome coronavirus 2 (2019-nCoV) (SARS-CoV-2), UniProt P0DTD1); format: biochemical; conditions: jump dilution
[3] = biological target: SARS-CoV-2 M^pro (Severe acute respiratory syndrome coronavirus 2 (2019-nCoV) (SARS-CoV-2), UniProt P0DTD1); experiment: biochemical
[4] = biological target: T1, Mpro; experiment: Label free mass spectrometry assay of Mpro substrate cleavage; format: biochemical; conditions: 50 μM concentration
[5] = system: Vero E6 cells; experiment: Toxicity in Vero E6 cells / cell culture
[6] = system: Vero E6 cells
[7] = system: SARS-CoV-2; conditions: human ACE2 transgenic mouse, 50-200 mg/kg, crystal form; cited from earlier work
[8] = compound at 17 μM, duplicates, 20 min pre-incubation, read-out: Activity (% enzyme activity by fluorescence relative to initial enzyme activity)

In the case of `O=c1c(O)c(-c2cc(O)c(O)c(O)c2)oc2cc(O)cc(O)c12` [myricetin, reference compound], the “Inhibition of SARS-CoV-2 replication (in words)” value (shortened to “Inhibition … (in words)”) [1] is reported as “somewhat less potently than PGHG, baicalein, or apigenin”, the “Inhibition … (in words)” value ([1]; listed as Myricetin) is reported as “inhibitory activity only at 100 μM” and the “Reversibility of Mpro inhibition by dilution” value [2] is reported as “resistant to dilution”.
Compound `O=c1cc(-c2ccc(O)c(-c3c(O)cc(O)c4c(=O)cc(-c5ccc(O)cc5)oc34)c2)oc2cc(O)cc(O)c12` [Amentoflavone] has an IC50 ([3]; IC50, compounds evaluated at 0.015-300 μM) of 8 µM, an IC50 ([3]; IC50 for inhibition of Mpro) of 5 to 15 µM and a remaining activity at 17 µM [3, 8] of 10 to 80%. The “Inhibition of Mpro activity (mass spectrometry)” value (“Inhibition of Mpro activity” below) [4] was “completely inhibited” and the “Reversibility of Mpro inhibition by dilution” value [2] was “completely reversible”.
In the case of `O=c1c(-c2c(O)cc(O)c3c(=O)cc(-c4ccc(O)cc4)oc23)c(-c2ccc(O)cc2)oc2cc(O)cc(O)c12` [3,8′-Biapigenin], the IC50 ([3]; IC50 for inhibition of Mpro) is reported as 5 to 15 µM and the “Inhibition of Mpro activity” value [4] is reported as “completely inhibited”.
With `COc1cc(-c2oc3cc(OC(C)=O)c(OC)c(OC(C)=O)c3c(=O)c2OC)ccc1OC(C)=O` [Jaceidin triacetate] the “Mpro inhibitory activity (comparison in words)” value [3] was “comparable to or better than the previously described Mpro inhibitors baicalein and myricetin”, the remaining activity at 17 µM [3, 8] was less than 10% and the IC50 ([3]; read-out: IC50 for inhibition of Mpro) was 5 to 15 µM. For the same compound, the “Inhibition of Mpro activity” value [4] was “completely inhibited” and the Toxicity in cells [5] was “toxic”.
With `O=c1cc(-c2ccc(O)cc2)oc2cc(O)cc(O)c12` [apigenin] the “Mpro inhibitory activity (comparison in words)” value [3] was “somewhat less potent”, the IC50 ([3]; IC50 for inhibition of Mpro) was 17.4 µM and the Toxicity in cells [6] was “some toxicity”. The “Inhibition … (in words)” value [1] was “inhibits viral replication at concentrations at doses that are not toxic”, the “Inhibition of SARS-CoV-2 replication at 50 μM” value ([1]; 50 μM) was “somewhat better than baicalein” and the “Reversibility of Mpro inhibition by dilution” value [2] was “completely reversible”.
For `O=c1cc(-c2ccccc2)oc2cc(O)c(O)c(O)c12` [Baicalein], the “Inhibition … (in words)” value [1] is listed as “antiviral activity”, the “Body weight after SARS-CoV-2 infection” value [7] is listed as “prevented reduction in body weight” and the “Lung injury resulting from SARS-CoV-2 infection” value [7] is listed as “decreased lung injury”.
Compound `CC(C)=CC1Oc2cc(O)ccc2-c2oc3c4c(cc(O)c3c(=O)c21)OC(C)(C)C=C4` (stereo not shown) [Cyclomorusin] has a remaining activity at 17 µM ([3]; read-out: Activity (% enzyme activity by fluorescence relative to initial enzyme activity), compound at 17 μM, duplicates, 20 min pre-incubation) greater than 80%.
